# These antisense oligonucleotides have a phosphorothioate backbone; sugars and methylation of C are not fully specified.
# Biological target: GNA12
# Conditions: ASO
# Further: test concentration or dose not given here.
row,Sequence,remaining target (mRNA or protein) (fraction of control)
1,CCGTCGAAGCACTGGAAC,0.8
2,CCTGAAGTCCGGGAAGTG,0.85
3,CCTGTCGAAGCACTGGAC,0.34
4,CGAAGGCCATCAGGAACA,≥ 1
5,CTCAGGGCCGGGACGTAC,0.77
6,CTCCAGCAGCGCCTTCTG,≥ 1
7,CTCGCGGCCGTGGATGAT,0.99
8,CTGAGGGTCCGCACCACC,≥ 1
9,CTGGAACCACTTCTGGCG,0.89
10,CTGGAGGAGACCATGAAC,≥ 1
11,CTTATCTCGTGCATCAAC,0.51
12,CTTGGTGGCTTTCCTAGC,≥ 1
13,GAAAGCCTCCCTGATGCC,0.38
14,GAAGCGGACGTTCTCGGT,≥ 1
15,GATATCTTGCTTACTAGG,0.37
16,GCAGGATCTTCACCAGGC,0.93
17,GCGCATCTGCTTGAGGAA,0.82
18,GCGCCTTCTGGTCGAACT,0.72
19,GCTCACGGTCTTCACCTT,≥ 1
20,GCTTGAGGAACGTGGACT,0.31
21,GGAAGAGAATGATGGAGA,≥ 1
22,GGAAGTACTTCACCGACT,≥ 1
23,GGACCTGGTCGTACTCGC,0.42
24,GGATGATGCGCATCTGCT,≥ 1
25,GGCAGCGGCTGAGGGTCC,0.68

row,Sequence,remaining target (mRNA or protein) (fraction of control)
1,GGGACGTACAGCTGGAAG,0.53
2,GGTGCGCCTGTCCTCCAT,0.33
3,GGTGGAAGAGTGGCTTGC,0.65
4,GGTTCTCCTGCAGGATGG,0.93
5,GTCCATCTTGTTGAGGAA,0.68
6,GTCGATGTCGCGGCTACG,≥ 1
7,GTCGTACTCGCTGGAGGA,0.39
8,GTGCATCAACAAGAACCC,0.89
9,GTGCGCTCAGGGCCGGGA,0.72
10,GTGGACTTGCCGCTCTCG,≥ 1
11,GTGGTGAAGTGGTGGAAG,0.87
12,GTTCCGTCTCTTCCTGTC,0.36
13,GTTGAAGAAGAGCTTGTT,0.33
14,TCAGGAACATCCCATGCT,0.79
15,TCCATGAGGACCTGGTCG,0.79
16,TCCGGTCCAAGTTGTCCA,0.88
17,TCGAAGATGGTGTCGCGG,0.98
18,TCTGGTCGAACTCGCGGC,0.7
19,TCTTCTTAATAACGAAGT,0.48
20,TGGTCTCGAAGATGTTCA,0.53
21,TGTCGCGGAACTCCAGCA,0.79
22,TTAATAACGAAGTCATGC,0.73
23,TTCATGGACTCCACCAGC,0.57
24,TTGTTGACGATGGTCTCG,0.73
25,TTTTCAGAATACTGCCAA,0.63

# Biological target: ICAM1
# Conditions: ASO
row,Sequence,remaining target (mRNA or protein) (fraction of control)
1,AACCTCGCGC,0.96
2,ACACATACACACACACACACA,0.54
3,AGCCACCTGGGGGCCAAGGGG,≥ 1
4,AGCCATAGCGAGGC,0.64
5,AGCCATAGCGAGGCTGAGGTT,0.2
6,AGCGAGGCTG,0.97
7,AGCGAGGCTGAG,0.79
8,AGCTGCGCTGCTACCTGCAC,0.25
9,ATAGCGAGGC,≥ 1
10,CAAGTGTGCATCCCCCAGGC,0
11,CACATGTCTATGGAGGG,0.89
12,CATAGCGAGGCTGAGGTTGC,0.39
13,CCAGAGGAAGTGGCTGAGGG,0.35
14,CCATAGCGAGGC,≥ 1

# Biological target: PDPK1
# Conditions: ASO
row,Sequence,remaining target (mRNA or protein) (fraction of control)
1,AAAAGAGCCTTCCCCAAG,0.88
2,AAACTGGCTCAGGAGATT,0.26
3,AAAGGTCTGAACTCTTAC,0.59
4,AAATAAACCCTTCCGCTT,0.74
5,AACAACAACCTCTTCTCA,0.7
6,AACTGGTGCCAAGGGTTT,0.54
7,AAGGCCGAAATACAGCTT,0.29
8,AAGGTCCCTGTGAATGAT,0.39
9,ACTGGATGGGCACGGCGT,0.63
10,AGACTTTTGCTGTTCCAA,0.28
11,AGCGTCCTCCTCCCCGAA,0.87
12,AGCTGGCTGGTGGTCCTG,0.36
13,AGGCGCGACATGACATCC,0.25
14,ATAGCAGTCCTCGTCGTC,0.57
15,ATATTCTCTGGAGGTTGC,0.78
16,ATCGGGTACAGGTCTCAT,0.68
17,ATGTGGTCCTTCTGTGAG,≥ 1
18,ATGTTTTCCGGTTTAAGG,0.66
19,ATTGTCATAATTGCCATA,0.78
20,ATTTTCTACAAACTGGTG,0.83
21,CAAGAGCCCAAAGGTCTG,≥ 1
22,CAAGGTTTCCGCCTCTGC,0.26
23,CAAGTACTCTAAAGCAGA,0.65
24,CACTGCACAGCGGCGTCC,≥ 1
25,CAGCTTCTCGTCGTCCTG,0.26
26,CAGGACAACCGTGGAAAA,≥ 1

row,Sequence,remaining target (mRNA or protein) (fraction of control)
1,CAGTCTGGGTCCTCACCA,0.54
2,CATCCCGCTCTCTGGTTA,0.41
3,CCAGCTCGGAATGGTGGG,0.82
4,CCTGAAATGTGAAGTAAA,≥ 1
5,CGAAGTTCTTGTGACCAA,≥ 1
6,CGATCTCAGCCGTGTAAA,0.13
7,CTCAGGCCGCTTCTTCCG,0.53
8,CTCTAAAGCAGACACAAT,0.71
9,CTGAAATGTGAAGTAAAG,0.45
10,CTGACAGGGAGTGTGAGG,≥ 1
11,CTGCTCTATGTTGCTGCC,0.55
12,CTGGTATCGCTGCCTCCA,0.22
13,CTTCCATTTCCTCACAGC,0.33
14,GAAGTCCTCAGGCCGCTT,0.28
15,GACATCCCGCTCTCTGGT,0.68
16,GAGTTGGCCCTGGCTTGT,0.5
17,GATTTTGCGAATATATTT,≥ 1
18,GCAGGAACATAACACCAC,0.54
19,GCAGGTGTCCTGGCAGCG,0.49
20,GCATATTCTCTGGAGGTT,≥ 1
21,GCATGCTGCAGGGAGCCG,≥ 1
22,GCGTCCTCCTCCCCGAAG,≥ 1
23,GCTGCAAGGTTTCCGCCT,≥ 1
24,GCTGCCTCCAAACCTCCT,≥ 1
25,GCTGTTCCCACGAATGAG,0.39
26,GGACTTCTCCGTGAGCAG,0.28

row,Sequence,remaining target (mRNA or protein) (fraction of control)
1,GGAGGCTGGGCATGCTGC,0.16
2,GGTACAGGTCTCATCGAA,0.1
3,GGTCTCTTGCCTTAGGGA,0.37
4,GGTGTGCTTTAAGAGGTC,0.6
5,GTCCCTGTGAATGATGCC,0.24
6,GTGAGGAGGAGGACGAAG,0.7
7,GTGCTGGACTCAGTCTGG,0.51
8,GTTCAAAGGAGTTCGAGT,0.5
9,GTTTCCGCCAGCCTGCTT,≥ 1
10,TAAACCCTTCCGCTTATC,≥ 1
11,TAAAGCTTAACAAAGAAG,≥ 1
12,TAAGTCCAGTTCAAAGGA,0.75
13,TATGATATGTCGCTTCTC,0.42
14,TCCTGTTAGGCGTGTGGA,0.53
15,TCTGGAGAAACGTACTGC,≥ 1
16,TGAGCAGCTCTGGAGAAA,0.85
17,TGGACAAAGAAAGTTTTA,≥ 1
18,TGGATGTGCATATCTTCA,0.81
19,TGGCATCTAAAACCAAAA,≥ 1
20,TGGCTGGCAGGTGGTCTG,0.2
21,TTGCTGTTCCAAAATCTG,≥ 1
22,TTGGCCCTGGCTTGTTTG,0.23
23,TTTAAGTAGTTCTCCATT,0.39
24,TTTATGATATGTCGCTTC,≥ 1
25,TTTGTTGACAGGATCCAC,0.72
